TGI data for 14 compounds are collected here from PubChem BioAssay (NCI).

SMILES strings stand for the structures.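 Results reflect a 48-hour exposure of cells in 96-well plates to compound at five concentrations. TGI denotes the concentration required for complete inhibition of growth.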 A value given as a limit tells only on which side of the number the result lay.

Assay in all cases: NCI-60 cell line screen, 48 h
Experiment [1] has as its system M14 melanoma.
Experiment [2] concerns NCI-H23 lung.
The subject of experiment [3] is KM12 colon.
The test system of experiment [4] is HCC-2998 colon.
For experiment [5], the system named is HS 578T breast.
The test system of experiment [6] is EKVX NSCLC.
For experiment [7], the system named is T-47D breast.
Experiment [8] has as its system A549 NSCLC.
For experiment [9], the system named is SW-620 colon.
Experiment [10] deals with TK-10 renal.

For `Nc1[nH]c(=O)nc2c1ncn2C1OC(CO)C(O)C1O` (stereo not given), the TGI in experiment [1] is over 100 µM; in experiment [2], over 100 µM; in experiment [3] it was over 100 µM; in experiment [4], 88.9 µM; in experiment [5], over 100 µM; in [6] it was over 100 µM. Besides, the TGI in [7] is 70.3 µM; in [8] it was over 100 µM; in experiment [9], over 100 µM; in experiment [10], over 100 µM.
With `C[n+]1cccc2ccc3cccnc3c21`, the TGI in experiment [1] is over 100 µM; in [2], over 100 µM; in experiment [3] it was 96.6 µM; in experiment [4], over 100 µM; in experiment [5], 64.3 µM; in experiment [6] it was over 100 µM. In addition, the TGI is 96.5 µM in experiment [7], over 100 µM in experiment [8], over 100 µM in [9] and over 100 µM in experiment [10].
`COc1cc2c(cc1O)C1Cc3ccc(OC)c(O)c3C[N+]1(C)CC2` (stereo not given): the TGI in experiment [1], in experiment [2], in experiment [3], in [4], in experiment [5] and in [6] was over 100 µM each time. Also, the TGI in [7], in experiment [8], in experiment [9] and in experiment [10] was over 100 µM each time.
For the compound `Cc1cn(CCCCCCOC(=O)NC(CCCNC(N)=O)C(=O)O)c(=O)[nH]c1=O` (stereo not given), the TGI in experiment [1], in experiment [2], in experiment [3], in experiment [4], in [5] and in experiment [6] was over 100 µM throughout. The TGI in experiment [7], in [8], in experiment [9] and in experiment [10] was over 100 µM each time.
As to `CN1CCN(C(=O)c2cn(Cc3cncn3Cc3ccc4c(c3)OCO4)cc2-c2cccc3ccccc23)CC1`, the TGI in experiment [1] was 46 µM; in experiment [2] it was over 89.7 µM; in [3], over 58.3 µM; in [4], 27 µM; in experiment [5], over 100 µM; in [6], over 100 µM. The TGI in experiment [7], in [8], in experiment [9] and in experiment [10] was over 100 µM throughout.
As to `COc1cc2c(/C=C3/C(=O)Nc4ccccc43)c(Cl)n(Cc3ccc(Cl)cc3)c2cc1C`, the TGI was 1.75 µM in experiment [1]; 0.644 µM in experiment [2]; 1.02 µM in [3]; 0.432 µM in [4]; 9.01 µM in [5]; 44.9 µM in experiment [6]. Also, the TGI in [7] was found to be 24.2 µM; in experiment [8], 10.6 µM; in experiment [9], 17.5 µM; in experiment [10], 7.67 µM.
For `COc1ccc(CCNC(=O)Cc2ccccc2CO)cc1OC`, the TGI in experiment [1], in experiment [2], in experiment [3], in experiment [4], in [5] and in [6] was over 100 µM each time. In addition, the TGI in [7], in experiment [8], in experiment [9] and in experiment [10] was over 100 µM each time.
Turning to `CC1=NN(C(=O)CC(=O)Nc2cccc(C)c2)C(=O)C1N=Nc1ccc(S(=O)(=O)CCOS(=O)(=O)O)cc1` (stereo not given), the TGI in [1] was 17.3 µM; in experiment [2] it was 24.6 µM; in experiment [3], 13.9 µM; in [4], 5.51 µM; in experiment [5] it was 15.3 µM; in [6] it was over 64.6 µM. Moreover, the TGI in experiment [7] was over 49.5 µM; in experiment [8], 50.6 µM; in [9], 14.5 µM; in [10] it was 26.2 µM.
In the case of `CCC1(c2ccc(N3C(=O)c4cccc5cc([N+](=O)[O-])cc(c45)C3=O)cc2)CCC(=O)NC1=O` (stereo not given), the TGI in experiment [1] was over 100 µM; in experiment [2] it was over 66.2 µM; in experiment [3] it was over 100 µM; in experiment [4] it was over 88.6 µM; in experiment [5], 64.4 µM; in [6], over 70.5 µM. Besides, the TGI in experiment [7] was over 100 µM; in [8], over 100 µM; in experiment [9] it was over 100 µM; in experiment [10], over 79.1 µM.
Regarding `CSC(SC)=C(C(=O)c1ccc(Cl)cc1)n1c(=O)sc2cc(Br)ccc21`, the TGI in experiment [1], in [2], in experiment [3], in [4], in experiment [5] and in experiment [6] was over 100 µM in each case. Besides, the TGI in [7], in [8], in experiment [9] and in experiment [10] was over 100 µM throughout.
As to `O=CCCCCCOCc1ccccc1`, the TGI is over 100 µM in experiment [1]; over 82.6 µM in [2]; over 100 µM in [3]; over 100 µM in [4]; over 100 µM in experiment [5]; over 100 µM in [6]. For the same compound, the TGI in experiment [7], in experiment [8], in experiment [9] and in [10] was over 100 µM each time.
In the case of `CC(=O)NC1C(OCc2ccccc2)OC(CO)C(O)C1OC(C)C(=O)N[C@@H](C)C(=O)N[C@H](CCC(=O)NCCNCCNc1c2ccccc2nc2cccc([N+](=O)[O-])c12)C(N)=O` (stereo not given in full), the TGI in experiment [1] is 0.436 µM; in experiment [2], 0.0902 µM; in experiment [3], 0.352 µM; in [4] it was 0.072 µM; in [5] it was 5.13 µM; in [6], 2.74 µM. In addition, the TGI in experiment [7] is 0.598 µM; in [8] it was 1.71 µM; in [9] it was over 38.1 µM; in [10], 3.54 µM.
As for `Cn1/c(=N\N=C2\C=C3CCCCC3(C)CC2)sc2ccccc21` (stereo not given), the TGI in experiment [1], in [2], in [3], in experiment [4], in [5] and in [6] was over 100 µM throughout. Also, the TGI in [7], in [8], in [9] and in [10] was over 100 µM each time.
Take `COC(=O)c1sc(=O)sc1SCc1cccc(CSc2sc(=O)sc2C(=O)OC)c1`: the TGI in [1], in experiment [2], in [3], in experiment [4], in experiment [5] and in [6] was over 100 µM in each case. For the same compound, the TGI was over 100 µM in [7], over 100 µM in experiment [8], over 100 µM in [9] and 57.5 µM in experiment [10].
